# Test results taken from patent US10464928B2, “Amino pyrimidine SSAO inhibitors” (Eli Lilly and Company, priority 2016, dated 2019).
# Assays:
# [1] = system: NASH and fibrosis induced by 3H diet; test: Mouse Model of NASH and Fibrosis Induced by 3H Diet; type: in vivo, Male C57BL/6N mice; conditions: for Perisinusoidal fibrosis Left, Score (0-3) / Hepatic inflammation Left, Score (0-3) / Macrovesicular vaculation Left, Score (0-3): left lobe; for Perisinusoidal fibrosis Left, Score (0-3): vehicle 2.5 ± 0.2; for Hepatic inflammation Left, Score (0-3) / Macrovesicular vaculation Left, Score (0-3) / Macrovesicular vaculation Right, Score (0-3): vehicle 2.8 ± 0.1; for Perisinusoidal fibrosis Right, Score (0-3) / Hepatic inflammation Right, Score (0-3) / Macrovesicular vaculation Right, Score (0-3): right lobe; for Perisinusoidal fibrosis Right, Score (0-3): vehicle 2.3 ± 0.1; for Hepatic inflammation Right, Score (0-3): vehicle 2.7 ± 0.1
# Method: Male C57BL/6N mice are fed with D09100301 diet (Research Diets, 40% fat, 2% cholesterol, 24% fructose, (the, high fat, high cholesterol and high fructose, the “3H diet”) for 150 days. Each mouse is then singly housed after 5 days for an acclimation period. Plasma alanine aminotransferase (ALT) and cytokeratin 18 (CK18) are measured. After one week of recovery, the mice are randomized into 5 groups based on their ALT values, CK18 values, and body weight. […] Blood is collected from mice treated with the compound of Example 6 for 76 days 2 hours after the last dose. Compound levels in the plasma are analyzed by mass spectroscopy. […] At the completion of the study, the animals are sacrificed and their livers excised. Two sections of the left and right lobes are fixed in neutral buffered 10% formalin. Liver tissue slides are stained with hematoxylin and eosin (H&E), Sirius red, and Masson's Trichrome to prepare slides for pathological analysis. All specimens are examined microscopically and scored as a modified Brunt score NASH Activity Score. Scores are based on the grading scheme and end-points as described in Brunt E. M, et al., “Histopathology of nonalcoholic fatty liver disease,” World J. of Gastroenterol, 2010, 16(42), 5286-5296. Group means are then calculated for each individual end-point. The following endpoints are used to characterize the fast food model of NASH in mice as modified from NASH endpoints (See Brunt, E. M. “Histopathology of nonalcoholic fatty liver disease,” Clin Liver Dis., 2009, 13, 533-544 and Brunt, E. M, et al., “Nonalcoholic steatohepatitis: A proposal for grading and staging the histological lesions”, Am J Gastroenterology, 1999, 94(9), 2467-2474.
# [2] = Plasma compound level in 3H diet mice by mass spectroscopy; type: in vivo, Male C57BL/6N mice; conditions: treated mice, all doses
# Method: Male C57BL/6N mice are fed with D09100301 diet (Research Diets, 40% fat, 2% cholesterol, 24% fructose, (the, high fat, high cholesterol and high fructose, the “3H diet”) for 150 days. Each mouse is then singly housed after 5 days for an acclimation period. Plasma alanine aminotransferase (ALT) and cytokeratin 18 (CK18) are measured. After one week of recovery, the mice are randomized into 5 groups based on their ALT values, CK18 values, and body weight. Animals of each group are administrated either vehicle (0.5% methylcellulose (MC)+0.25% Tween 80 in distilled water) or the compound of Example 6 (at a 0.06, 2, 6, and 20 mg/kg dose) once daily in a volume of 5 ml/kg for 11 weeks. Blood is collected from mice treated with the compound of Example 6 for 76 days 2 hours after the last dose. Compound levels in the plasma are analyzed by mass spectroscopy.
# [3] = system: SSAO activity in rat plasma and liver tissues; test: SSAO Target Engagement (residual SSAO activity in rat plasma and liver after dosing); type: in vivo; conditions: doses 0.005-15 mg/kg
# Method: The SSAO activity in rat plasma and liver tissues are measured using the MAO-Glo™ assay kit from Promega (V1402). The residual SSAO activity in rats after compound treatment is estimated by measuring the total amine oxidase activity in plasma or liver lysates that are insensitive to the presence of the MAO inhibitor Clogyline and Pargyline. Rats are administered the compound of Example 2 at the doses of 15, 3, 0.6, 0.12, 0.025, 0.005 mg/kg. The control group is administered with the same volume (2 ml/kg) of the dosing vehicle (hydroxyethyl cellulose 1% w/v, 0.25% Tween 80). Plasma and liver at 2 or 24 hours post compound treatment are harvested and stored at −78° C. until analysis. Tissue lysates are prepared by homogenization in a lysis buffer (20 mM HEPES, pH 7.4, 150 mM NaCl, 1 mM EDTA, 1 mM EGTA, 1% Triton X-100 and 1× Roche Complete protease inhibitor tablet). Tissue particles are removed by centrifugation at 12,000 rpm at 4° C. for 30 minutes. 40 μl of plasma or liver lysates is incubated with Clogyline (10 μM) and Pargyline (10 μM) for 20 minutes at room temperature before the addition of the luminogenic substrate (50 μM) for 60 minutes. The product generated is quantified according to the manufacture's procedure. […] The compound of Example 2 was evaluated in the protocol essentially as described above administered at various doses.
compound,measurement,setting,value
"Cl.Cl.NC/C(=C\F)COc1cnc(N2CC[C@H](O)C2)nc1 [Example 6, (3S)-1-[5-[(E)-2-(Aminomethyl)-3-fluoro-allyloxy]pyrimidin-2-yl]pyrrolidin-3-ol; Dihydrochloride]","Perisinusoidal fibrosis Left, Score (0-3)",[1]; 0.6 mg/kg once daily 11 weeks,2.4 ± 0.2
same,"Hepatic inflammation Left, Score (0-3)",[1]; 0.6 mg/kg once daily 11 weeks,2.6 ± 0.1
same,"Macrovesicular vaculation Left, Score (0-3)",[1]; 0.6 mg/kg once daily 11 weeks,2.5 ± 0.1
same,"Perisinusoidal fibrosis Right, Score (0-3)",[1]; 0.6 mg/kg once daily 11 weeks,1.9 ± 0.2
same,"Hepatic inflammation Right, Score (0-3)",[1]; 0.6 mg/kg once daily 11 weeks,2.5 ± 0.1
same,"Macrovesicular vaculation Right, Score (0-3)",[1]; 0.6 mg/kg once daily 11 weeks,2.6 ± 0.1
same,"Perisinusoidal fibrosis Left, Score (0-3)",[1]; 2 mg/kg once daily 11 weeks,2.5 ± 0.2
same,"Hepatic inflammation Left, Score (0-3)",[1]; 2 mg/kg once daily 11 weeks,2.5 ± 0.1
same,"Macrovesicular vaculation Left, Score (0-3)",[1]; 2 mg/kg once daily 11 weeks,2.5 ± 0.1
same,"Perisinusoidal fibrosis Right, Score (0-3)",[1]; 2 mg/kg once daily 11 weeks,1.8 ± 0.2
same,"Hepatic inflammation Right, Score (0-3)",[1]; 2 mg/kg once daily 11 weeks,2.6 ± 0.1
same,"Macrovesicular vaculation Right, Score (0-3)",[1]; 2 mg/kg once daily 11 weeks,2.7 ± 0.1
same,"Perisinusoidal fibrosis Left, Score (0-3)",[1]; 6 mg/kg once daily 11 weeks,2.6 ± 0.2
same,"Hepatic inflammation Left, Score (0-3)",[1]; 6 mg/kg once daily 11 weeks,2.5 ± 0.2
same,"Macrovesicular vaculation Left, Score (0-3)",[1]; 6 mg/kg once daily 11 weeks,2.9 ± 0.1
same,"Perisinusoidal fibrosis Right, Score (0-3)",[1]; 6 mg/kg once daily 11 weeks,2.1 ± 0.3
same,"Hepatic inflammation Right, Score (0-3)",[1]; 6 mg/kg once daily 11 weeks,2.6 ± 0.2
same,"Macrovesicular vaculation Right, Score (0-3)",[1]; 6 mg/kg once daily 11 weeks,2.7 ± 0.1
same,hepatic inflammation (result in words),[1]; 20 mg/kg,significant decrease
same,macrovesicular vaculation (result in words),[1]; 20 mg/kg,significant decrease
same,perisinusoidal fibrosis (result in words),[1]; 20 mg/kg,significant decrease
same,"Perisinusoidal fibrosis Left, Score (0-3)",[1]; 20 mg/kg once daily 11 weeks,1.9 ± 0.2
same,"Hepatic inflammation Left, Score (0-3)",[1]; 20 mg/kg once daily 11 weeks,2.1 ± 0.1
same,"Macrovesicular vaculation Left, Score (0-3)",[1]; 20 mg/kg once daily 11 weeks,2.4 ± 0.2
same,"Perisinusoidal fibrosis Right, Score (0-3)",[1]; 20 mg/kg once daily 11 weeks,1.5 ± 0.2
same,"Hepatic inflammation Right, Score (0-3)",[1]; 20 mg/kg once daily 11 weeks,2.1 ± 0.1
same,"Macrovesicular vaculation Right, Score (0-3)",[1]; 20 mg/kg once daily 11 weeks,2.3 ± 0.1
same,triglyceride levels in blood (result in words),[1]; 6 and 20 mg/kg,decreased
same,ALT (result in words),[1]; all groups of treated mice vs vehicle,significant decrease
same,plasma compound levels (result in words),[2],dose-dependent increase
"Cl.Cl.NC/C(=C\F)COc1cnc(N2CCC(O)CC2)nc1 [Example 2, 1-[5-[(E)-2-(Aminomethyl)-3-fluoro-allyloxy]pyrimidin-2-yl]piperidin-4-ol dihydrochloride]",SSAO activity in rat plasma and liver (result in words),[3],dose-dependently inhibits SSAO activity
